Test results reported in patent US8415469B2, “Compounds and methods for kinase modulation, and indications therefor” (Plexxikon Inc., priority 2005, dated 2013).

Columns and labels:
Format in all cases: biochemical
[1] = biological target: T1, Src (Homo sapiens, UniProt P12931); experiment: AlphaScreen kinase assay, Src; details: read-out: IC50, activity toward kinase Src
T1 construct: P1144. pET-N6 BI-PTP SRC V86-L536-X; made in house

[2] = biological target: T2, Kit (Homo sapiens, UniProt P10721); experiment: AlphaScreen kinase assay, Kit; details: read-out: IC50, activity toward kinase Kit
T2 construct: P1332.N6 BI PTP KIT M552-K948-X COD; His6 (N); made in house; host or cells: E. coli (PTP1B co-expressed)

[3] = biological target: T3, Fms (Homo sapiens, UniProt P07333); experiment: AlphaScreen kinase assay, Fms; details: read-out: IC50, activity toward kinase Fms
T3 construct: purchased Upstate Biotechnology

[4] = biological target: T4, B-Raf V600E (Homo sapiens, UniProt P15056, V600E); experiment: AlphaScreen kinase assay, B-Raf V600E; details: read-out: IC50, activity toward kinase B-Raf V600E
T4 construct: P4254. pFastBacBD-CDC37 BRAF D437-K722-X, V600E; His6 with pFastBac HT leader (TEV site) (N); made in house; host or cells: Sf9 (baculovirus; chaperone CDC37 co-expressed)

[5] = biological target: T5, Flt1 (Homo sapiens, UniProt P17948); experiment: AlphaScreen kinase assay, Flt1; details: read-out: IC50, activity toward kinase Flt1
T5 construct: P1826.pETN6 BI-PTP FLT1 M799-D1165-X WT; His6 (N); made in house; host or cells: E. coli (PTP1B co-expressed)
T5 sequence (P17948 with tags, fused parts or gaps): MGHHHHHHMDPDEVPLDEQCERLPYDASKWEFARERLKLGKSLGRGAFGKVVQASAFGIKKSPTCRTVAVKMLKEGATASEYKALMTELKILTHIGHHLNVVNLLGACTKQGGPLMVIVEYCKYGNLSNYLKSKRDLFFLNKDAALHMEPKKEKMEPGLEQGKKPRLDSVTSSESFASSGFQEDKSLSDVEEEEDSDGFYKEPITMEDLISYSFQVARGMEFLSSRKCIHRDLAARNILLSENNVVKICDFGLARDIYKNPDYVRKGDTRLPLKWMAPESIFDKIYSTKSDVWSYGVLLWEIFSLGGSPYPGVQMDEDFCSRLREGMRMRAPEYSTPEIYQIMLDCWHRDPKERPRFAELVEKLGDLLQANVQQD

[6] = biological target: T6, FGFR1 (Homo sapiens, UniProt P11362, C488A/C584S); experiment: AlphaScreen kinase assay, FGFR1; details: read-out: IC50, activity toward kinase FGFR
T6 construct: P1351.pET N6 BI-PTP FGFR A458-E765-X C488A, C584S; made in house; host or cells: E. coli (PTP1B co-expressed)

[7] = biological target: T7, B-Raf (Homo sapiens, UniProt P15056); experiment: AlphaScreen kinase assay, B-Raf; details: read-out: IC50, activity toward kinase B-Raf
T7 construct: purchased Upstate Biotechnology

[8] = biological target: T8, c-Raf-1 (Homo sapiens, UniProt P04049); experiment: AlphaScreen kinase assay, c-Raf-1; details: read-out: IC50, activity toward kinase c-Raf-1
T8 construct: purchased Upstate Biotechnology
Description: (§1) AlphaScreen assay was used to screen additional kinases. The assay is similarly dependent on the phosphorylation of a peptide substrate. In this assay, an antibody that recognizes phosphorylated substrate is bound to an acceptor bead. The peptide substrate is attached to biotin, which binds to a donor head that contains streptavidin. Thus phosphorylated substrate is bound by antibody and streptavidin, bringing the donor and acceptor heads into close proximity when kinase is not inhibited. The donor produces singlet oxygen which results in emission from the acceptor when they are in close proximity. Conversely, when kinase is inhibited, the donor and acceptor beads are not associated and the emission from the acceptor is reduced.
(§2) AlphaScreen assays were done using compounds dissolved in DMSO to a concentration of 20 mM. The compounds were diluted accordingly to the desired final concentrations in each sample well, using 1:3 serial dilution for a total of 8 concentration points. Plates were prepared such that each kinase reaction is 20 μl in 1× kinase buffer, 5% DMSO and 10 μM ATP. After incubation of the kinase reaction for 1 hour at room temperature, 5 μl of donor beads in stop buffer (50 mM EDTA in 1× kinase buffer) was added, the sample was mixed and incubated for 20 minutes at room temperature before adding 5 μl of acceptor beads in stop buffer. The samples were incubated for 60 minutes at room temperature and the signal per well was read on AlphaQuest reader.

[9] = biological target: T9, Ret (Homo sapiens, UniProt P07949); experiment: AlphaScreen kinase assay, Ret; details: read-out: IC50, activity toward kinase Ret
T9 construct: P1378.pET-SF BI-PTP RET H661-R1012 HIS; made in house
T9 sequence (P07949 with tags, fused parts or gaps): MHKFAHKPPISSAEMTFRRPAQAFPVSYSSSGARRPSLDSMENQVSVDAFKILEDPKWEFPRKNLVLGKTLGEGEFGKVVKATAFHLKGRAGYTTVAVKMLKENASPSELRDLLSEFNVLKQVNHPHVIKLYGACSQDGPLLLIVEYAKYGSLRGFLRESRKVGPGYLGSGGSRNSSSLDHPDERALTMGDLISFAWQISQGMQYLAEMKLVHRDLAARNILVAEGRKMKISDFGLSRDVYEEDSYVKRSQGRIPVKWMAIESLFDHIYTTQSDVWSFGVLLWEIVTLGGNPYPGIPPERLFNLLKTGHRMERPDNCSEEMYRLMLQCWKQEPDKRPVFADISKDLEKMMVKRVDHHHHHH
Description: as §1, §2

Measured: IC50

T6 sequence (P11362 458-765 C488A/C584S): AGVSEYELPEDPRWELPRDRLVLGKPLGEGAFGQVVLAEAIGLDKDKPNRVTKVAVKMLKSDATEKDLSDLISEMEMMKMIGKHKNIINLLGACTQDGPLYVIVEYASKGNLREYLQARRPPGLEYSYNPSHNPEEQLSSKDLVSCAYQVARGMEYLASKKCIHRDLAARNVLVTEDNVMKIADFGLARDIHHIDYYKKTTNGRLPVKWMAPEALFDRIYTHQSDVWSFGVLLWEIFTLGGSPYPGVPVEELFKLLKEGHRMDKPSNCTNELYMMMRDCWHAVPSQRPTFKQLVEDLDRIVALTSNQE
T4 sequence (P15056 with tags, fused parts or gaps V600E): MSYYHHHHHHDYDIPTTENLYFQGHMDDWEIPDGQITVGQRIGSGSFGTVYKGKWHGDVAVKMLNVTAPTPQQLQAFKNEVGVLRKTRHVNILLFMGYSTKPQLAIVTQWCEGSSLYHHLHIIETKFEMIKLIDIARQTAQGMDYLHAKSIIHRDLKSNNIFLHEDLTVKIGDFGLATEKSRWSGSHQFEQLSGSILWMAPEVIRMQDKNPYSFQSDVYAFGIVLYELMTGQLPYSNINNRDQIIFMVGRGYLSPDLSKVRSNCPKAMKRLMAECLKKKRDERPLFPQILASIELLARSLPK
T3 sequence (P07333 20-972): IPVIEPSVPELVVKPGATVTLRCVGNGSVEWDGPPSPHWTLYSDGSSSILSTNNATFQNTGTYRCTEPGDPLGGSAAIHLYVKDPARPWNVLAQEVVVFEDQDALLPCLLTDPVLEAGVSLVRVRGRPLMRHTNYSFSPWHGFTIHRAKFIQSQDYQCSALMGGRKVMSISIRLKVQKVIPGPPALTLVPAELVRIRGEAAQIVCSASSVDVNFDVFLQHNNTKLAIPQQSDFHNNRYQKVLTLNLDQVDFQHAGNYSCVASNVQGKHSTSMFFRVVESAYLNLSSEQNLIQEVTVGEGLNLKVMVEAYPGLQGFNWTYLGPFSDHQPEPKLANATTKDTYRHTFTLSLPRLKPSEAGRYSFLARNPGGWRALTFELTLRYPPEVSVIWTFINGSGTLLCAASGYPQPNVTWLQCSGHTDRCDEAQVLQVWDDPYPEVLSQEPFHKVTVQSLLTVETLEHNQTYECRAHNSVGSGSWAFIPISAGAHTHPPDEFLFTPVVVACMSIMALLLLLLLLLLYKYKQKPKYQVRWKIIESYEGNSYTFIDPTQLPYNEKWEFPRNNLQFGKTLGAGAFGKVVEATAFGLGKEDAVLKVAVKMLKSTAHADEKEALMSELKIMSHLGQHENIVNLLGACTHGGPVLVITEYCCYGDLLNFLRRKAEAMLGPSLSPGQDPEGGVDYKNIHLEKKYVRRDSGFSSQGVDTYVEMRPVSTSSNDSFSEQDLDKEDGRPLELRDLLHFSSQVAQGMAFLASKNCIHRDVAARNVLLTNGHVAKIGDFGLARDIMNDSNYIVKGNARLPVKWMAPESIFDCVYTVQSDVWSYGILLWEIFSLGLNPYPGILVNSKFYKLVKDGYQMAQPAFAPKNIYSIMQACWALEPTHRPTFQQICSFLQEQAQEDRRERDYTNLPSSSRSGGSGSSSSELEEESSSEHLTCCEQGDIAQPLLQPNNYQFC
T7 sequence (P15056 whole entry): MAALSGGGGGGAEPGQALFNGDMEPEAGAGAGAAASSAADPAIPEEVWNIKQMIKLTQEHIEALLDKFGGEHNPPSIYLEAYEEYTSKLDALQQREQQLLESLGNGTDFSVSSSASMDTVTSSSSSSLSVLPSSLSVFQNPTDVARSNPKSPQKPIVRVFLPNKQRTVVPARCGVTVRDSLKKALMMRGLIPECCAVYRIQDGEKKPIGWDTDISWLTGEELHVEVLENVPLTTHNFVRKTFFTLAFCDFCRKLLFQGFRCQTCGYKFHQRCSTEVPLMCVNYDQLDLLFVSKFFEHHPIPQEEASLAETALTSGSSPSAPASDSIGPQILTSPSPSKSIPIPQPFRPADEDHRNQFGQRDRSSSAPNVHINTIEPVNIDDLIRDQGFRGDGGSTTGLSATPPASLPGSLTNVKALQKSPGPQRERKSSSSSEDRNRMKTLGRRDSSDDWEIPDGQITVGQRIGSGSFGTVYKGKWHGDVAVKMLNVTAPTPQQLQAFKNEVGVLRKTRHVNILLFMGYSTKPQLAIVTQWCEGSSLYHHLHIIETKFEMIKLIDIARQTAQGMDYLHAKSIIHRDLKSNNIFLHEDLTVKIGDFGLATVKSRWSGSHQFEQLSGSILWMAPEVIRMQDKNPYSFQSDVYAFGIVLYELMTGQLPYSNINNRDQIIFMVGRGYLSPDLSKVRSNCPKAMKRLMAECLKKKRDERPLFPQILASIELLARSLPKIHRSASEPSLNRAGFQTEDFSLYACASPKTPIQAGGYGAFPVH
T2 sequence (P10721 with tags, fused parts or gaps): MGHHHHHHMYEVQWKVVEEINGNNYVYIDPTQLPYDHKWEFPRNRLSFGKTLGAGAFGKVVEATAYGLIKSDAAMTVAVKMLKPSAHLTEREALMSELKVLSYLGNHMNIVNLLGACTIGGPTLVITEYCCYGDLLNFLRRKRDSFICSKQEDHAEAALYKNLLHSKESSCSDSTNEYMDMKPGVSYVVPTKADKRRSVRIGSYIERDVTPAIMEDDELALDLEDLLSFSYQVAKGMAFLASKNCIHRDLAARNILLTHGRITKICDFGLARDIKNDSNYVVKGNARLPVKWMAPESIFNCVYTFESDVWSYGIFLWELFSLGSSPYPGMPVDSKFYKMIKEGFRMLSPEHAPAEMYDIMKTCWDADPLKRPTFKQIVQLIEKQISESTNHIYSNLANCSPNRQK
T8 sequence (P04049 whole entry): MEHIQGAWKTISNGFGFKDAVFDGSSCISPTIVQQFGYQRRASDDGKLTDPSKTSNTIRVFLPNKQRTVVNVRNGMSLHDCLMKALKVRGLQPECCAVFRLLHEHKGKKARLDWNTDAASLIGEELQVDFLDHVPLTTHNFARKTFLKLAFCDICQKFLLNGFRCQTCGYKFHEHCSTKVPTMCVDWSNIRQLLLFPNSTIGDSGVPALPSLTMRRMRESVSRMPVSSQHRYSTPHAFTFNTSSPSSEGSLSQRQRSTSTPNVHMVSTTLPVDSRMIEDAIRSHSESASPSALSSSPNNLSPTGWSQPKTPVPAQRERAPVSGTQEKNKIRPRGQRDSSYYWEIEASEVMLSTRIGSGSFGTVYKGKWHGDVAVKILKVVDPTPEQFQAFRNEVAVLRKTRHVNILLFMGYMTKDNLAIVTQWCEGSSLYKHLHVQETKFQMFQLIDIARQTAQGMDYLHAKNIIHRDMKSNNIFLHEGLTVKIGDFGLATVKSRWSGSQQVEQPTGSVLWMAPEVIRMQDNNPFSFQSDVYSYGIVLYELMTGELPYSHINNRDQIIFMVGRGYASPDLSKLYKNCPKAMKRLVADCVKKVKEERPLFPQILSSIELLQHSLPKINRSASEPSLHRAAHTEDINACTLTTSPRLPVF
T1 sequence (P12931 with tags, fused parts or gaps): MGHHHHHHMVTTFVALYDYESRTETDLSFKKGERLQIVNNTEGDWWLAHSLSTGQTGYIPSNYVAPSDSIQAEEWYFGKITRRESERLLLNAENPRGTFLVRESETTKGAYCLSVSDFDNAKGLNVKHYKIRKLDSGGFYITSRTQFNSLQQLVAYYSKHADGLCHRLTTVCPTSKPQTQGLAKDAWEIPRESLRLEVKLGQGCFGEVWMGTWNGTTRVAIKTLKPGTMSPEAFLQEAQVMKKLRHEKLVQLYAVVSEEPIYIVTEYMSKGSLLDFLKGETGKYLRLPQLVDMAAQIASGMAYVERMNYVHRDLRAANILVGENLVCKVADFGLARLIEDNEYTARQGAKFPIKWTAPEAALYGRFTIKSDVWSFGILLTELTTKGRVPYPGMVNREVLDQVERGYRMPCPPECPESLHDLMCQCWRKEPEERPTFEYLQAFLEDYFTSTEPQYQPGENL

O=C(O)/C=C/c1cccc(-c2cnc3[nH]cc(C(=O)c4cccc(C(F)(F)F)c4)c3c2)c1 [Compound P-1416, (E)-3-{3-[3-(3-Trifluoromethyl-benzoyl)-1H-pyrrolo[2,3-b]pyridin-5-yl]-phenyl}-acrylic acid]
not listed: [7] | [8] | [9]
≤ 10 µM: all other assays above

O=C(COc1ccc(F)c(Cc2c[nH]c3ncc(-c4cccnc4)cc23)c1F)NCc1ccccc1 [Compound P-1469, N-Benzyl-2-[2,4-difluoro-3-(5-pyridin-3-yl-1H-pyrrolo[2,3-b]pyridin-3-ylmethyl)-phenoxy]-acetamide]
not listed: [8] | [9]
≤ 10 µM: all other assays above

COC(=O)Nc1ccc(F)c(C(=O)c2c[nH]c3ncc(Br)cc23)c1F [Compound P-1448]
≤ 10 µM: [1] | [8] | [3] | [4] | [6]

CS(=O)(=O)Nc1cccc(-c2cnc3[nH]cc(Cc4ccc5c(c4)OCCO5)c3c2)c1 [Compound P-1530, N-{3-[3-(2,3-Dihydro-benzo[1,4]dioxin-6-ylmethyl)-1H-pyrrolo[2,3-b]pyridin-5-yl]-phenyl}-methanesulfonamide]
not listed: [7] | [8] | [9]
≤ 10 µM: all other assays above

CCCS(=O)(=O)Nc1ccc(F)c(C(=O)c2c[nH]c3ncc(OCCN(CC)CC)cc23)c1F [Compound P-1254, Propane-1-sulfonic acid {3-[5-(2-diethylamino-ethoxy)-1H-pyrrolo[2,3-b]pyridine-3-carbonyl]-2,4-difluoro-phenyl}-amide]
not listed: [3] | [5] | [9]
≤ 10 µM: all other assays above

COCCOc1ccc(F)c(C(=O)c2c[nH]c3ncc(-c4cccc(NS(C)(=O)=O)c4)cc23)c1F [Compound P-1472, N-(3-{3-[2,6-Difluoro-3-(2-methoxy-ethoxy)-benzoyl]-1H-yrrolo[2,3-b]pyridin-5-yl}-phenyl)-methanesulfonamide]
not listed: [8] | [9]
≤ 10 µM: all other assays above

COc1ccnc2[nH]cc(Cc3ccc(NCc4ccc(Cl)cc4)nc3)c12 [Compound P-0373]
≤ 10 µM: [1] | [3] | [4] | [5] | [6]

Clc1ccc(CNc2ccc(Cc3c[nH]c4nccc(Cl)c34)cn2)cc1 [Compound P-0515]
≤ 10 µM: [1] | [3] | [4] | [5] | [6]

CCCS(=O)(=O)Nc1ccc(F)c(C(=O)c2c[nH]c3ncc(-c4ccc(OC)cc4)cc23)c1F [Compound P-0877, Propane-1-sulfonic acid {2,4-difluoro-3-[5-(4-methoxy-phenyl)-1H-pyrrolo[2,3-b]pyridine-3-carbonyl]-phenyl}-amide]
not listed: [3] | [5] | [9]
≤ 10 µM: all other assays above

COc1cccc(N(C)c2c[nH]c3ncccc23)c1 [Compound P-1506, (3-Methoxy-phenyl)-methyl-(1H-pyrrolo[2,3-b]pyridin-3-yl)-amine]
≤ 10 µM: [1] | [2] | [3] | [4]

COc1ccc(C(=O)c2c[nH]c3ncc(Br)cc23)c(Cl)c1 [Compound P-0647]
≤ 10 µM: [1] | [9] | [2] | [4] | [6]

O=C(c1c(Cl)cccc1Cl)c1c[nH]c2ncccc12 [Compound P-1476]
≤ 10 µM: [1] | [2] | [3] | [6]

CN(C)S(=O)(=O)Nc1ccc(F)c(C(=O)c2c[nH]c3ncc(Cl)cc23)c1F [Compound P-1258, Dimethylamine-1-sulfonic acid [3-(5-chloro-1H-pyrrolo[2,3-b]pyridine-3-carbonyl)-2,4-difluorophenyl]-amide]
≤ 10 µM: [1] | [8] | [7] | [4] | [6]

CCCS(=O)(=O)Nc1ccc(F)c(C(=O)c2c[nH]c3ncc(F)cc23)c1F [Compound P-0907, Propane-1-sulfonic acid [2,4-difluoro-3-(5-fluoro-1H-pyrrolo[2,3-b]pyridine-3-carbonyl)-phenyl]-amide]
not listed: [3] | [5] | [9]
≤ 10 µM: all other assays above

O=S(=O)(Nc1ccc(F)c(Cc2c[nH]c3ncc(-c4cccnc4)cc23)c1F)c1ccccc1 [Compound P-1398]
≤ 10 µM: [1] | [8] | [4] | [6]

CN(C)S(=O)(=O)Nc1ccc(F)c(C(=O)c2c[nH]c3ncccc23)c1F [Compound P-0950, Dimethylamine-1-sulfonic acid [3-(1H-pyrrolo[2,3-b]pyridine-3-carbonyl)-2,4-difluoro-phenyl]-amide]
≤ 10 µM: [1] | [8] | [4] | [6]

O=[N+]([O-])c1cccc(C(O)c2c[nH]c3ncc(-c4cccnc4)cc23)c1 (stereo not drawn) [Compound P-1399, (3-nitro-phenyl)-(5-pyridin-3-yl-1H-pyrrolo[2,3-b]pyridin-3-yl)-methanol]
≤ 10 µM: [1] | [2] | [3] | [4] | [6]

CCCCS(=O)(=O)Nc1ccc(F)c(C(=O)c2c[nH]c3ncc(Cl)cc23)c1F [Compound P-1265, Butane-1-sulfonic acid [3-(5-chloro-1H-pyrrolo[2,3-b]pyridine-3-carbonyl)-2,4-difluoro-phenyl]-amide]
not listed: [2] | [5] | [9]
≤ 10 µM: all other assays above
